The target in assay [1] is T1, CD73 enzymatic activity expressed on the cell surface of MDA-MB-231 cells (Homo sapiens, UniProt P21589).
T1 construct: Human breast cancer cells MDA-MB-231 that endogenously express CD73 were used; host or cells: MDA-MB-231
T1 sequence (P21589 27-549): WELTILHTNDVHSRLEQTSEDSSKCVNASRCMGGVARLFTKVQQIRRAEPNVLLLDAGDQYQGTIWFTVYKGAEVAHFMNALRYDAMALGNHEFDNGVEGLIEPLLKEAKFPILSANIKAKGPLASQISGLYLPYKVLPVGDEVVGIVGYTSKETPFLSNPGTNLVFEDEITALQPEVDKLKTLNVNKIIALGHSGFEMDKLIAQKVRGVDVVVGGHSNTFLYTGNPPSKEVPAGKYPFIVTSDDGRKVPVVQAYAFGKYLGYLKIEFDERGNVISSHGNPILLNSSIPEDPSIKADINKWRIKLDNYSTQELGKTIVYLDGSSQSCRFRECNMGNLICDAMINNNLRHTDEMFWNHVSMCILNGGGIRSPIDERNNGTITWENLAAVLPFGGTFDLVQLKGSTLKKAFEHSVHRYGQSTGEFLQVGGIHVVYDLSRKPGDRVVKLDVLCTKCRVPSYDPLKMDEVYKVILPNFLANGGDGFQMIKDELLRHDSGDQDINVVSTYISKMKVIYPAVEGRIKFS
In words: Inhibition of CD73 enzymatic activity on the cell surface (Cell Titer Glo (CTG) experiment), MDA-MB-231 cells. It counts as cell-based. The settings on record: MDA-MB-231 cells endogenously expressing CD73, AMP, 37° C. for 2 hours, CTG readout; read-out: Cellular activity IC50. How it is done: Human breast cancer cells MDA-MB-231 that endogenously express CD73 were used in the present invention to evaluate the inhibition of the compound against the CD73 enzymatic activity expressed on the cell surface. The cells used were from the Cell Bank of the Chinese Academy of Sciences. The specific experimental procedures were as follows:
1. Before the test, MDA-MB231 cells were seeded to a 96-well plate at 20000 cells/well;
2. In RPMI1640, 10% fetal bovine serum (Gibco, 10099-141), placed in a 5% CO2 incubator at 37° C. overnight (the cells were washed three times by using a serum-free RPMI medium right before the test):
3. 50 μl of serum-free media containing the compounds at different concentrations were added to the cells and incubated for 15 minutes;
4. 25 μL of 1.2 mM AMP was added for incubation at 37° C. for 2 hours, 25 μL of supernatant was then collected from the cells and mix with 25 μL of 100 μM ATP, and then the concentration of AMP in the samples was determined by CTG (Promega, #G7573);
5. Then, a reduction ratio of the substrate AMP level in the cell culture supernatant collected after the reaction was quantitatively determined to evaluate the inhibitory effects of the examples of the present invention and the positive compounds against the CD73 enzymatic activity on the cell surface;
6. Finally, the concentration of the compound leading to half maximal inhibition of enzymatic activity (IC50) was determined using a four-parameter non-linear logistic model curve fit in Graphpad Prism.
(In general: In ATP-based viability assays light output follows the ATP content of the culture.)

In the next assay the target is T2, CD73 (Homo sapiens, UniProt P21589).
T2 construct: purchased R&D systems 5795-EN-010
T2 sequence (P21589 27-547 limits assumed): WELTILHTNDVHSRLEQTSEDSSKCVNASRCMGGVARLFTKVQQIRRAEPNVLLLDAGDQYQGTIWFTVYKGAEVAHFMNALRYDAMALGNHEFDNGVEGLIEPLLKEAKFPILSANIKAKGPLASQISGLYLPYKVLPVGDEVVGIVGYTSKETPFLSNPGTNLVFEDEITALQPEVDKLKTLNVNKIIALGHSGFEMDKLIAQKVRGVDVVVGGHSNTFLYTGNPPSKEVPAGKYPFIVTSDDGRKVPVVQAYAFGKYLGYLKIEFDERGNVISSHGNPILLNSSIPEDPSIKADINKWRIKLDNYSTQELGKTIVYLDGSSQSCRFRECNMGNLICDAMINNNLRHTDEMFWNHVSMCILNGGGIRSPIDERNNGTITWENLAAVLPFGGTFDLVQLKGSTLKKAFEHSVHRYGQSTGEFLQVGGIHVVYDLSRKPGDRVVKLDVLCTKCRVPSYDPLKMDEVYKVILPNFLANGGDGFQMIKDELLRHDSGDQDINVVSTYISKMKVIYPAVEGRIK
As to the kind of experiment: In vitro enzymatic activity against CD73 (malachite green test using soluble CD73). Conditions: soluble CD73 36 ng/mL, 50 μM AMP, 30 minutes at 25° C. It counts as biochemical. The protocol:
The malachite green test using soluble CD73, which is synthesized in vitro was used in the present invention to determine the characteristics of inhibitory activity of the compounds against CD73. The specific experimental procedures were as following:
1. The enzyme reaction in this experiment was carried out in 384-well plates, and CD73 (R&D systems #5795-EN-010) at a concentration of 36 ng/mL, the compounds at different concentrations and 50 μM AMP were incubated for 30 minutes at 25° C. in a 40 uL reaction system (consisting of 25 mM Tris pH 7.5, 5 mM MgCl2, and 0.005% Tween-20);
2. Then, 10 μL of malachite green solution (Sigma) was added to each well to terminate the reaction;
3. The concentration of resulting inorganic phosphate was determined according to the instructions of the reagent manufacturer;
4. The enzymatic activity of CD73 was calculated based on the concentration of the product, and then IC50 values were determined by non-linear regression analysis of the inhibition percentage of the compounds of the present invention at different concentrations.

One may read the IC50 as the concentration needed to halve the response being measured.

On to `O=P(O)(O)CP(=O)(O)OC[C@H]1O[C@@H](n2ncc3c(N[C@@H]4CCc5cc(C(F)(F)F)ccc54)cc(Cl)nc32)[C@H](O)[C@@H]1O` [Example 19, (((((2R,3S,4R,5R)-5-(6-chloro-4-(((R)-5-(trifluoromethyl)-2,3-dihydro-1H-inden-1-yl)amino)-1H-pyrazolo[3,4-b]pyridin-1-yl)-3,4-dihydroxytetrahydrofuran-2-yl)methoxy)(hydroxy)phosphoryl)methyl)phosphonic acid], for which the IC50 in assay [1] came out at 0.54 nM; against CD73 it was 11.8 nM.
The matching figures for `O=P(O)(O)CP(=O)(O)OC[C@H]1O[C@@H](n2ncc3c(N[C@@H]4CCc5ccc(C(F)(F)F)cc54)cc(Cl)nc32)[C@H](O)[C@@H]1O` [Example 20, (((((2R,3S,4R,5R)-5-(6-chloro-4-(((R)-6-(trifluoromethyl)-2,3-dihydro-1H-inden-1-yl)amino)-1H-pyrazolo[3,4-b]pyridin-1-yl)-3,4-dihydroxytetrahydrofuran-2-yl)methoxy)(hydroxy)phosphoryl)methyl)phosphonic acid]: 0.27 nM and 0.71 nM.
Taken in the same sequence, the figures for `O=P(O)(O)CP(=O)(O)OC[C@H]1O[C@@H](n2ncc3c(N[C@@H]4CCc5cc(F)cc(F)c54)cc(Cl)nc32)[C@H](O)[C@@H]1O` [Example 21, (((((2R,3S,4R,5R)-5-(6-chloro-4-(((R)-5,7-difluoro-2,3-dihydro-1H-inden-1-yl)amino)-1H-pyrazolo[3,4-b]pyridin-1-yl)-3,4-dihydroxytetrahydrofuran-2-yl)methoxy)(hydroxy)phosphoryl)methyl)phosphonic acid] were 0.21 nM and 0.21 nM.
`O=P(O)(O)CP(=O)(O)OC[C@H]1O[C@@H](n2ncc3c(N[C@@H]4CCc5cc(F)c(F)cc54)cc(Cl)nc32)[C@H](O)[C@@H]1O` [Example 22, (((((2R,3S,4R,5R)-5-(6-chloro-4-(((R)-5,6-difluoro-2,3-dihydro-1H-inden-1-yl)amino)-1H-pyrazolo[3,4-b]pyridin-1-yl)-3,4-dihydroxytetrahydrofuran-2-yl)methoxy)(hydroxy)phosphoryl)methyl)phosphonic acid]: the 50% inhibitory concentration (IC50) came out at 0.151 nM in assay [1] and 0.26 nM at CD73.
For the compound `Cc1cc(N[C@@H]2CCc3cc(F)cc(F)c32)c2cnn([C@@H]3O[C@H](COP(=O)(O)CP(=O)(O)O)[C@@H](O)[C@H]3O)c2n1` [Example 23, (((((2R,3S,4R,5R)-5-(4-(((R)-5,7-difluoro-2,3-dihydro-1H-inden-1-yl)amino)-6-methyl-1H-pyrazolo[3,4-b]pyridin-1-yl)-3,4-dihydroxytetrahydrofuran-2-yl)methoxy)(hydroxy)phosphoryl)methyl)phosphonic acid], the IC50 in assay [1] is 0.245 nM; against CD73, 0.89 nM.
The matching figures for `Cc1cc(N[C@@H]2CCc3cc(F)ccc32)c2cnn([C@@H]3O[C@H](COP(=O)(O)CP(=O)(O)O)[C@@H](O)[C@H]3O)c2n1` [Example 24, (((((2R,3S,4R,5R)-5-(4-(((R)-5-fluoro-2,3-dihydro-1H-inden-1-yl)amino)-6-methyl-1H-pyrazolo[3,4-b]pyridin-1-yl)-3,4-dihydroxytetrhydrofuran-2-yl)methoxy)(hydroxy)phosphoryl)methyl)phosphonic acid]: 0.256 nM and 1.26 nM.
Taken in the same sequence, the figures for `O=P(O)(O)CP(=O)(O)OC[C@H]1C[C@@H](c2ccc3c(N[C@@H]4CCc5ccccc54)nc(Cl)nn23)[C@H](O)[C@@H]1O` [Example 25, (((((1R,2R,3S,4S)-4-(2-chloro-4-(((R)-2,3-dihydro-1H-inden-1-yl)amino)pyrrolo[2,1-f][1,2,4]triazin-7-yl)-2,3-dihydroxycyclopentyl)methoxy)(hydroxy)phosphoryl)methyl)phosphonic acid] were 0.55 nM and 5.5 nM.
As for `O=P(O)(O)CP(=O)(O)OC[C@H]1C[C@@H](c2ccc3c(N[C@H]4CCc5cc(F)ccc54)nc(Cl)nn23)[C@H](O)[C@@H]1O` [Example 27, (((((1R,2R,3S,4S)-4-(2-chloro-4-(((S)-5-fluoro-2,3-dihydro-1H-inden-1-yl)amino)pyrrolo[2,1-f][1,2,4]triazin-7-yl)-2,3-dihydroxycyclopentyl)methoxy)(hydroxy)phosphoryl)methyl)phosphonic acid], the IC50 was 2.54 nM in assay [1] and 82.6 nM at CD73.
Taken in the same sequence, the figures for `O=P(O)(O)CP(=O)(O)OC[C@H]1C[C@@H](c2ccc3c(N[C@@H]4CCc5cc(F)ccc54)nc(Cl)nn23)[C@H](O)[C@@H]1O` [Example 28, (((((1R,2R,3S,4S)-4-(2-chloro-4-(((R)-5-fluoro-2,3-dihydro-1H-inden-1-yl)amino)pyrrolo[2,1-f][1,2,4]triazin-7-yl)-2,3-dihydroxycyclopentyl)methoxy)(hydroxy)phosphoryl)methyl)phosphonic acid] were 0.252 nM and 3.95 nM.
The matching figures for `O=P(O)(O)CP(=O)(O)OC[C@H]1C[C@@H](c2ccc3c(N[C@H]4CCc5ccc(F)cc54)nc(Cl)nn23)[C@H](O)[C@@H]1O` [Example 29, (((((1R,2R,3S,4S)-4-(2-chloro-4-(((S)-6-fluoro-2,3-dihydro-1H-inden-1-yl)amino)pyrrolo[2,1-f][1,2,4]triazin-7-yl)-2,3-dihydroxycyclopentyl)methoxy)(hydroxy)phosphoryl)methyl)phosphonic acid]: 0.71 nM and 15 nM.
The matching figures for `O=P(O)(O)CP(=O)(O)OC[C@H]1C[C@@H](c2ccc3c(N[C@@H]4CCc5ccc(F)cc54)nc(Cl)nn23)[C@H](O)[C@@H]1O` [Example 30, (((((1R,2R,3S,4S)-4-(2-chloro-4-(((R)-6-fluoro-2,3-dihydro-1H-inden-1-yl)amino)pyrrolo[2,1-f][1,2,4]triazin-7-yl)-2,3-dihydroxycyclopentyl)methoxy)(hydroxy)phosphoryl)methyl)phosphonic acid]: 0.19 nM and 3.4 nM.
On to `O=P(O)(O)CP(=O)(O)OC[C@H]1C[C@@H](c2ccc3c(N[C@H]4CCc5cc(F)c(F)cc54)nc(Cl)nn23)[C@H](O)[C@@H]1O` [Example 31, (((((1R,2R,3S,4S)-4-(2-chloro-4-(((S)-5,6-difluoro-2,3-dihydro-1H-inden-1-yl)amino)pyrrolo[2,1-f][1,2,4]triazin-7-yl)-2,3-dihydroxycyclopentyl)methoxy)(hydroxy)phosphoryl)methyl)phosphonic acid], for which the IC50 in assay [1] worked out at 0.95 nM; on CD73, 48.6 nM.

The values above are taken from US12157755B2, “CD73 inhibitor, preparation method therefor and application thereof” (Abbisko Therapeutics Co., Ltd., priority 2019, dated 2024).
